Assay results: US20260055150A1, “GRAIL-1 PEPTIDE PRODUCTS AND METHODS” (REGENTS OF THE UNIVERSITY OF MICHIGAN, priority 2022, published 2026)
Entries after “also recorded” stand apart in the source; their conditions may differ. Where a SMILES comes first, the peptide text is derived from it. Where no end group is shown, it is not given here.

Assays:
[1] = tested on: chaperone activity (Fluc-DM); experiment: Fluc-DM luciferase reporter of cellular chaperone activity; assay type: cell-based; details: 20 μM peptide, overnight
Description: As Frag J/J^m overexpression locks DNAJA1-Hsp70 complex, whether such interactions inhibit chaperone activity was tested. […] To understand the in vivo effects of the Frag J or different peptides in multiple cell lines including BE/EAC and p53 isogenic lines, cells were first transfected/co-transfected with Fluc-DM±Frag J constructs. Twenty-four hours post-transfection, cells were either subjected to luciferase assay or for peptide treatment studies, cells were treated with 20 μM concentrations of different peptides. After overnight incubation, cell lysates were prepared using lysis buffer provided in the luciferase assay kit in Promega luciferase assay system (cat. E1910) followed by standardized protocol as provided by the manufacturer. […] Such observation was confirmed by an in vitro chaperone activity assay using recombinant purified Hsp40-Hsp70 complex (FIG. 6D). In Fluc-DM study, loss of Fluc-DM levels following Frag J/J^m overexpression (FIG. 6E) was noted as shown using immunoblotting. Such effects were independent of p53 mutation status.

mutant p53-R175H = experiment: Immunoblotting of mutant p53 steady state levels in CpD cells; assay type: cell-based; details: CpD cells transfected with DDK-tagged p53R175H; peptides 20 mM for 6 h
Description: CpD cells overexpressing mutant p53 were transfected with DDK-tagged p53R175H mutant. Cells were then treated with indicated peptides ([…] for 6 h).
Consequently, the effect of all thirteen peptides on mutant p53 steady state levels was tested.

[2] = tested on: EAC cells (Flo1, OE19, and OE33); experiment: Cell viability (MTT) of EAC cell lines; assay type: cell-based
[3] = tested on: patient-derived organoids (PDOs); experiment: Growth and survival of patient derived organoids in vitro; assay type: cell-based, human
mutant p53 = tested on: mutant p53
Description: The effect of Pep J and simvastatin treatment either alone or in combination on wild type and mutant p53 was tested in BE/EAC cells present in ten established PDOs grown in vitro. Scrambled Pep J was used as a negative control. […] Different concentrations of Pep J (10-200 μM) and simvastatin (50-1000 nM) were tested as well as different treatment time periods (24-96 hours).
Organoid lysates were prepared for immunoblotting similar to FIG. 13G.

CpD cells = experiment: Clonogenic survival of mutant p53 driven CpD cells; details: for differential activity in reducing clonogenic survival of CpD cells: CpD versus CpA; for cytotoxic effect on either cell type: CpA and CpD cells
Description: The effects of different siRNAs (e.g., GRAIL Iso1-1, GRAIL Iso1-2, TP53) on clonogenic survival of different BE (CpA, CpD) and EAC (Flo1, OE19, and OE33) cell lines were determined by normalizing the survival fraction of control siRNA-treated group as 1.
For this purpose, two BE cell lines were used, CpA (with wild type p53) and CpD (carrying mutant p53). […] In brief, 3000 cells in 100 μl of complete medium were plated per well in a 96-well plate 24 h prior to peptide treatments. Cells were then either treated with vehicle (dH2O) or serial dilutions of peptides. Two days following treatments MTT labelling reagent was added, and cells were allowed to form formazan crystals for 2 h. Following, 100 μl of solubilizing agent (10% SDS in 0.01M HCl) was added per well, and plates were incubated at 37° C. overnight. The optical density (OD) of the solubilized formazan was spectrophotometrically quantified using a plate reader at 570 nm with a reference at 650 nm. Data represent the mean (±standard error, SE) performed in quadruplicate, and percent cell viabilities are plotted in semi-logarithmic scale relative to water treated control.

DNAJA1 = experiment: Peptide pull down assay with recombinant DNAJA1; assay type: binding; details: NHS activated Sepharose beads, Western blot
Description: Briefly, 1 mg of peptide was dissolved in 1 ml of coupling buffer (0.2 M NaHCO3, 0.5 M NaCl, pH 8.3). Peptides were conjugated to NHS-activated resin by incubating 100 μL NHS bead slurry with 200 μL peptide solution for 2 hours at room temperature (RT). Unbound sites were blocked with quenching buffer (0.5 M ethanolamine, 500 mM NaCl). Resin peptide conjugates were washed once with low pH (0.1 M acetate, 0.5 M NaCl, pH 5) and high pH buffer (0.1 M Tris HCl, pH 8.0) and equilibrated with lysis buffer 50 mM HEPES, 150 mM NaCl, 0.2% NP-40, protease inhibitor cocktail, pH 7.5. Purified HSP40 protein was procured from […] (cat #). Purified protein was diluted in lysis buffer. Approximately 40 nM protein was incubated with peptide coupled to NHS beads and incubated for 2 hours at RT. Unbound proteins were removed by centrifugation and beads were washed with washing buffer (50 mM HEPES, 300 mM NaCl, 0.2% NP-40, pH 7.5). Bound proteins were obtained by boiling beads with 1× Laemmli buffer. […] To confirm, thermal stability assays (TSA) were performed. TSA was carried out using QuantStudio™ 7 Flex Real-Time PCR System. […] The plates were covered with optical foil during the reaction in the thermal cycler. […] The Instrument was programmed in the melt curve mode with ROX reagent detection and Fast speed run. The reporter was selected as Rox and none for quencher. Each melt curve was programmed as follows: 25° C. for 15 sec, followed by increase in temperature at the speed of 0.03° C./s up to 95° C. and finally 95° C. for 15 sec. The raw data was exported to Protein Thermal Shift™ Software (Applied Biosystems) for analysis. Melting temperature was calculated using the melt curve. […] To further test functionality, an in vitro ATPase activity assay was performed using purified Hsp40 and Hsp70 proteins. […] Pep 1 was redesignated “Pep J”.

mutant p53 and EGFR = experiment: Immunoblotting of mutant p53 and EGFR levels in BE/EAC cells; assay type: cell-based
[4] = tested on: OE33, OE 19 and Flo1 esophageal adenocarcinoma (EAC) cells; experiment: Radiosensitization clonogenic assay of EAC cells; assay type: cell-based; details: 20 μM for 24 hours, then 0-8 Gy
Description: OE33, OE 19 and Flo1 esophageal adenocarcinoma (EAC) cells were plated and after overnight incubation treated with 20 μM of Pep J for an additional 24 hours. Following, cells were irradiated with different doses (0, 2, 4, 6, 8 Gy) of radiation. Cells were then incubated for 24 hours prior to plating at a clonal density to perform clonogenic assays.

Compound	inhibition of chaperone activity (Fluc-DM) [1]	mutant p53-R175H protein levels (mutant p53-R175H)	differential activity in reducing clonogenic survival of CpD cells (CpD cells)	interaction with purified DNAJA1 in peptide pull down (DNAJA1)	cytotoxic effect on either cell type (CpD cells)	further results
CC[C@H](C)[C@H](NC(=O)[C@H](CC(=O)O)NC(=O)[C@H](CS)NC(=O)[C@H](CCCCN)NC(=O)[C@H](CS)NC(=O)[C@H](CCSC)NC(=O)[C@@H]1CCCN1C(=O)[C@H](CCC(N)=O)NC(=O)[C@@H]1CCCN1C(=O)[C@H](CCCNC(=N)N)NC(=O)[C@H](CCCNC(=N)N)NC(=O)[C@H](CCCNC(=N)N)NC(=O)[C@H](CCC(N)=O)NC(=O)[C@H](CCCNC(=N)N)NC(=O)[C@H](CCCNC(=N)N)NC(=O)[C@H](CCCCN)NC(=O)[C@H](CCCCN)NC(=O)[C@H](CCCNC(=N)N)NC(=O)CN)C(=O)N[C@@H](CC(C)C)C(=O)N[C@@H](CCCCN)C(=O)N[C@@H](C)C(=O)O [Pep 1] (H-GRKKRRQRRRPQPMCKCDILKA-OH; N-terminus and C-terminus assumed)	inhibition of chaperone activity; also recorded: capable of inhibiting chaperone activity	highly effective; also recorded: decrease in mutant p53 levels	better differential activity	showed interactions		effect on EAC cell lines [2]: relatively more resistant; killing of PDOs ([3]; 7 days treatment in vitro): killed PDOs; size of organoid growth ([3]; after 72 h of treatment): No major effect; mutant p53 (nuclear) levels by immunofluorescence (mutant p53; FFPE fixed and sectioned organoids, 72 h, listed as Pep J): significant reduction; reduction in mutant p53 levels (mutant p53; immunoblotting of whole PDO lysis, 72 hours of treatment): 50%; misfolded mutant p53 levels in PDOs (mutant p53; within 24 h post treatment): loss of misfolded mutant p53; impact on p53 and EGFR levels in wild type p53 cells (mutant p53 and EGFR; CpA cells): no major impact; EGFR levels (mutant p53 and EGFR; CpD and OE33 cells): reduces; mutant p53 levels (mutant p53 and EGFR; CpD and OE33 cells): reduces; radiosensitization [4]: radiosensitized
N=C(N)NCCC[C@H](NC(=O)CN)C(=O)N[C@@H](CCCCN)C(=O)N[C@@H](CCCCN)C(=O)N[C@@H](CCCNC(=N)N)C(=O)N[C@@H](CCCNC(=N)N)C(=O)N[C@@H](CCC(N)=O)C(=O)N[C@@H](CCCNC(=N)N)C(=O)N[C@@H](CCCNC(=N)N)C(=O)N[C@@H](CCCNC(=N)N)C(=O)N[C@@H](CCCNC(=N)N)C(=O)N1CCC[C@H]1C(=O)N[C@@H](CCC(N)=O)C(=O)O [Pep 13, GRKKRRQRRRRPQ]					least cytotoxic effect	
CKVPPWR [Pep 28, TAT-less Pep 9]				bound effectively		
GRKKRRQRRRPQCKVPPWR [Pep 9]	inhibition of chaperone activity; also recorded: capable of inhibiting chaperone activity	highly effective; also recorded: decrease in mutant p53 levels	better differential activity			
GRKKRRQRRRPQCKVPPWRQ [Pep 8]		decrease in mutant p53 levels				
GRKKRRQRRRPQLGIEVDVEDG [Pep 12]					least cytotoxic effect; also recorded: list effects	
